Measured values published in patent US11034725B2, “Compositions and methods for treating cardiovascular disease” (Genentech, Inc., priority 2016, dated 2021).
Where two headings read alike, the source gives them in different places. Bridge positions count the residues as written; N and C are the ends. Square brackets hold non-standard residues; d marks the D form. Peptide text beside a SMILES is read from it. * marks the point of attachment. Fmoc = O=C(OCC1c2ccccc2-c2ccccc21)*; Aun = NCCCCCCCCCCC(=O)O

Key:
[1] = molecular target: T1, PCSK9Δhelix (Homo sapiens, UniProt Q8NBP7); test: PCSK9Δhelix/Ab20 TR-FRET binding assay
T1 construct: Human PCSK9 construct M1-Q692 with an engineered TEV site (residue deletion Y166, R167); made in house; host or cells: CHO
T1 sequence (Q8NBP7 with tags, fused parts or gaps limits assumed): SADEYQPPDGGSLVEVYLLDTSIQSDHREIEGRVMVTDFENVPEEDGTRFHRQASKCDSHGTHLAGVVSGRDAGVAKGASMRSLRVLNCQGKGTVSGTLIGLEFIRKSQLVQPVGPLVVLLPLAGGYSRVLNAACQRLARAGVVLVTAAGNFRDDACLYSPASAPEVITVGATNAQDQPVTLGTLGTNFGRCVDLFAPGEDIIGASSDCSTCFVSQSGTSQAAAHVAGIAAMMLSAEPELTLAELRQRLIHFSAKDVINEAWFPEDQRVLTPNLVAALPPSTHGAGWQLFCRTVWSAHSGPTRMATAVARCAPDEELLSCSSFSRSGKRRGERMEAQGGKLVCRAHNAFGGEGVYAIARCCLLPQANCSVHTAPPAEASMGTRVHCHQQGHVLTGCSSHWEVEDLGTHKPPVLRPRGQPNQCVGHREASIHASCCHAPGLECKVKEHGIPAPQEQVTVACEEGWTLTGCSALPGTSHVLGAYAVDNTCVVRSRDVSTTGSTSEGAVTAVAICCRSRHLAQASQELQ
T1 sequence (Q8NBP7 31-152 partner limits assumed): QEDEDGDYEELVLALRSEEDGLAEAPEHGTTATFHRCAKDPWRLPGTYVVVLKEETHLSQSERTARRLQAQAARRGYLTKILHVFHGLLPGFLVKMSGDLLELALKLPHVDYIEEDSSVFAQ

[2] = system: His-EGF(A)-Fc; test: His-EGF(A)-Fc TR-FRET counterscreen
[3] = TR-FRET, Example 7, read-out: PCSK9Δhelix/Ab20 IC50
[4] = TR-FRET counterscreen, Table 8D, * = some inhibition at highest concentrations, not sufficient to fit an IC50

CC(=O)N[C@H](C(=O)N[C@H](C(=O)N[C@@H](Cc1ccccc1)C(=O)N[C@H](C(=O)N[C@@H](CO)C(=O)N[C@@H](Cc1c[nH]c2ccccc12)C(=O)N[C@@H](CCC(=O)O)C(=O)N[C@@H](CCC(=O)O)C(=O)N[C@@H](Cc1ccc(O)cc1)C(=O)N[C@@H](CC(C)C)C(=O)N[C@@H](CC(=O)O)C(=O)N[C@@H](Cc1c[nH]c2ccccc12)C(=O)N[C@H](C(=O)NCCCCCCC(=O)N[C@@H](CCCCN)C(=O)N[C@@H](CC(C)C)C(=O)N[C@@H](Cc1c[nH]c2ccccc12)C(=O)N[C@@H](CC(N)=O)C(=O)N[C@@H](CC(C)C)C(=O)NCC(=O)N[C@@H](CCCNC(=N)N)C(=O)N[C@H](C(N)=O)C(C)C)C(C)C)[C@@H](C)O)C(C)C)[C@@H](C)O [Compound 16] was tested, and the IC50 [1, 3] was 28 nM and the IC50 ([2]; counterscreen, Example 7) was > 50 µM.

With CC(=O)N[C@H](C(=O)N[C@H](C(=O)N[C@@H](Cc1ccccc1)C(=O)N[C@H](C(=O)N[C@@H](CO)C(=O)N[C@@H](Cc1c[nH]c2ccccc12)C(=O)N[C@@H](CCC(=O)O)C(=O)N[C@@H](CCC(=O)O)C(=O)N[C@@H](Cc1ccc(O)cc1)C(=O)N[C@@H](CC(C)C)C(=O)N[C@@H](CC(=O)O)C(=O)N[C@@H](Cc1c[nH]c2ccccc12)C(=O)N[C@H](C(=O)NCCCCCC(=O)N[C@@H](CCCCN)C(=O)N[C@@H](CC(C)C)C(=O)N[C@@H](Cc1c[nH]c2ccccc12)C(=O)N[C@@H](CC(N)=O)C(=O)N[C@@H](CC(C)C)C(=O)NCC(=O)N[C@@H](CCCNC(=N)N)C(=O)N[C@H](C(N)=O)C(C)C)C(C)C)[C@@H](C)O)C(C)C)[C@@H](C)O [Compound 18] the IC50 [1, 3] was 40 nM and the IC50 ([2]; counterscreen, Example 7) was > 50 µM.

With CC[C@H](C)[C@@H]1NC(=O)[C@H](CCCNC(=N)N)NC(=O)[C@H](CCC(N)=O)NC(=O)[C@H](CC(C)C)NC(=O)[C@H](CC(N)=O)NC(=O)[C@H](Cc2c[nH]c3ccccc23)NC(=O)[C@@H]2CCCN2C(=O)[C@H](CC(C)C)NC(=O)[C@H](CCCNC(=N)N)NC(=O)[C@@H](NC(=O)CNC(=O)CNC(=O)[C@H](CO)NC(=O)CNC(=O)[C@@H](NC(=O)[C@H](Cc2c[nH]c3ccccc23)NC(=O)[C@H](CC(=O)O)NC(=O)[C@H](CC(C)C)NC(=O)[C@H](Cc2ccc(O)cc2)NC(=O)[C@H](CCC(=O)O)NC(=O)[C@H](CCC(=O)O)NC(=O)[C@H](Cc2c[nH]c3ccccc23)NC(=O)[C@H](CO)NC(=O)[C@@H](NC(=O)[C@H](Cc2ccccc2)NC(=O)[C@@H](NC(=O)[C@@H](NC(C)=O)[C@@H](C)O)C(C)C)[C@@H](C)O)C(C)C)CSSC[C@@H](C(N)=O)NC(=O)[C@@H]2CCCN2C(=O)[C@H](CC(C)C)NC(=O)CNC1=O [Compound 25] (Ac-TVFTSWEEYLDWVGSGGCRLPWNLQRIGLPC-NH2; disulfide 18-31) the “inhibition in the PCSK9Δhelix/Ab20 binding assay” value [1] was “potent inhibitors”, the IC50 [1, 3] was 83 nM and the IC50 ([2]; counterscreen, Example 7) was > 50 µM.

With CC[C@H](C)[C@@H]1NC(=O)[C@H](CCCNC(=N)N)NC(=O)[C@H](CCC(N)=O)NC(=O)[C@H](CC(C)C)NC(=O)[C@H](CC(N)=O)NC(=O)[C@H](Cc2c[nH]c3ccccc23)NC(=O)[C@@H]2CCCN2C(=O)[C@H](CC(C)C)NC(=O)[C@H](Cc2ccccc2)NC(=O)[C@@H](NC(=O)CNC(=O)CNC(=O)[C@H](CO)NC(=O)CNC(=O)[C@@H](NC(=O)[C@H](Cc2c[nH]c3ccccc23)NC(=O)[C@H](CC(=O)O)NC(=O)[C@H](CC(C)C)NC(=O)[C@H](Cc2ccc(O)cc2)NC(=O)[C@H](CCC(=O)O)NC(=O)[C@H](CCC(=O)O)NC(=O)[C@H](Cc2c[nH]c3ccccc23)NC(=O)[C@H](CO)NC(=O)[C@@H](NC(=O)[C@H](Cc2ccccc2)NC(=O)[C@@H](NC(=O)[C@@H](NC(C)=O)[C@@H](C)O)C(C)C)[C@@H](C)O)C(C)C)CSSC[C@@H](C(N)=O)NC(=O)[C@H](CC(C)C)NC(=O)[C@H](CC(C)C)NC(=O)CNC1=O [Compound 38] (Ac-TVFTSWEEYLDWVGSGGCFLPWNLQRIGLLC-NH2; disulfide 18-31) the “inhibition in the PCSK9Δhelix/Ab20 binding assay” value [1] was “potent inhibitors”, the IC50 [1, 3] was 3 nM and the IC50 ([2]; counterscreen, Example 7) was > 50 µM.

For CC[C@H](C)[C@@H]1NC(=O)[C@H](CCCNC(=N)N)NC(=O)[C@H](CCCCN)NC(=O)[C@H](CC(C)C)NC(=O)[C@H](CC(N)=O)NC(=O)[C@H](Cc2c[nH]c3ccccc23)NC(=O)[C@@H](NC(=O)CNC(=O)[C@H](CO)NC(=O)CNC(C)=O)CSSC[C@@H](C(=O)N[C@@H](Cc2c[nH]c3ccccc23)C(N)=O)NC(=O)CNC(=O)[C@H](CCC(N)=O)NC(=O)[C@H](CO)NC(=O)CNC1=O [Compound 40] (Ac-GSGCWNLKRIGSQGCW-NH2; disulfide 4-15), the IC50 ([1]; PCSK9Δhelix/Ab20 IC50, TR-FRET, Table 8D, disulfide-cyclized extension peptides) was 2410 nM and the IC50 [2, 4] was > 50 µM.

CC[C@H](C)[C@@H]1NC(=O)[C@H](CCCNC(=N)N)NC(=O)[C@H](CCCCN)NC(=O)[C@H](CC(C)C)NC(=O)[C@H](CC(N)=O)NC(=O)[C@H](Cc2c[nH]c3ccccc23)NC(=O)[C@H](CC(C)C)NC(=O)[C@@H](NC(=O)[C@H](CCSC)NC(C)=O)CSSC[C@@H](C(=O)N[C@@H](CCC(=O)O)C(=O)N[C@@H](Cc2ccc(O)cc2)C(N)=O)NC(=O)[C@H](CCC(N)=O)NC(=O)[C@H](CO)NC(=O)CNC1=O [Compound 63] (Ac-MCLWNLKRIGSQCEY-NH2; disulfide 2-13) was tested, and the “inhibition in the PCSK9Δhelix/Ab20 binding assay” value [1] was “low micromolar range”, the IC50 ([1]; TR-FRET, Table 8D, disulfide-cyclized extension peptides, read-out: PCSK9Δhelix/Ab20 IC50) was 6000 nM and the IC50 [2, 4] was 41 µM.

For CC(=O)N[C@H]1CSSC[C@@H](C(N)=O)NC(=O)CCCCCCCCCCNC(=O)[C@H](CCCNC(=N)N)NC(=O)[C@H](CCC(N)=O)NC(=O)[C@H](CC(C)C)NC(=O)[C@H](CC(N)=O)NC(=O)[C@H](Cc2c[nH]c3ccccc23)NC(=O)[C@@H]2CCCN2C(=O)[C@H](CC(C)C)NC(=O)[C@H](CCCNC(=N)N)NC1=O [Compound 83] (Ac-CRLPWNLQR[Aun]C-NH2; disulfide 1-11 (inferred)), the “inhibition in the PCSK9Δhelix/Ab20 binding assay” value [1] was “removes inhibition” and the IC50 [2, 4] was > 50 µM.

In the case of CC[C@H](C)[C@H](NC(=O)[C@H](CCCNC(=N)N)NC(=O)[C@H](CCCCN)NC(=O)[C@H](CC(C)C)NC(=O)[C@H](CC(N)=O)NC(=O)[C@H](Cc1c[nH]c2ccccc12)NC(=O)[C@H](C)NC(=O)CCCCCNC(=O)[C@@H](NC(=O)[C@H](Cc1c[nH]c2ccccc12)NC(=O)[C@H](CC(=O)O)NC(=O)[C@H](CC(C)C)NC(=O)[C@H](Cc1ccc(O)cc1)NC(=O)[C@H](CCC(=O)O)NC(=O)[C@H](CCC(=O)O)NC(=O)[C@H](Cc1c[nH]c2ccccc12)NC(=O)[C@H](CO)NC(=O)[C@@H](NC(=O)[C@H](Cc1ccccc1)NC(=O)[C@@H](NC(=O)[C@@H](NC(C)=O)[C@@H](C)O)C(C)C)[C@@H](C)O)C(C)C)C(=O)NCC(=O)N[C@@H](CO)C(N)=O [Compound 91], the IC50 [1, 3] is reported as 10 nM and the IC50 ([2]; counterscreen, Example 7) is reported as > 50 µM.

In the case of CC[C@H](C)[C@H](NC(=O)[C@H](CCCNC(=N)N)NC(=O)[C@H](CCCCN)NC(=O)[C@H](CC(C)C)NC(=O)[C@H](CC(N)=O)NC(=O)[C@H](Cc1c[nH]c2ccccc12)NC(=O)[C@H](C)NC(=O)CCCCCNC(=O)[C@@H](NC(=O)[C@H](Cc1c[nH]c2ccccc12)NC(=O)[C@H](CC(=O)O)NC(=O)[C@H](CC(C)C)NC(=O)[C@H](Cc1ccc(O)cc1)NC(=O)[C@H](CCC(=O)O)NC(=O)[C@H](CCC(=O)O)NC(=O)[C@H](Cc1c[nH]c2ccccc12)NC(=O)[C@H](CO)NC(=O)[C@@H](NC(=O)[C@H](Cc1ccccc1)NC(=O)[C@@H](NC(=O)[C@@H](NC(C)=O)[C@@H](C)O)C(C)C)[C@@H](C)O)C(C)C)C(=O)NCC(N)=O [Compound 92], the IC50 [1, 3] is reported as 13 nM and the IC50 ([2]; counterscreen, Example 7) is reported as > 50 µM.

In the case of CC[C@H](C)[C@H](NC(=O)[C@H](CCCNC(=N)N)NC(=O)[C@H](CCCCN)NC(=O)[C@H](CC(C)C)NC(=O)[C@H](CC(N)=O)NC(=O)[C@H](Cc1c[nH]c2ccccc12)NC(=O)[C@H](C)NC(=O)CCCCCNC(=O)[C@@H](NC(=O)[C@H](Cc1c[nH]c2ccccc12)NC(=O)[C@H](CC(=O)O)NC(=O)[C@H](CC(C)C)NC(=O)[C@H](Cc1ccc(O)cc1)NC(=O)[C@H](CCC(=O)O)NC(=O)[C@H](CCC(=O)O)NC(=O)[C@H](Cc1c[nH]c2ccccc12)NC(=O)[C@H](CO)NC(=O)[C@@H](NC(=O)[C@H](Cc1ccccc1)NC(=O)[C@@H](NC(=O)[C@@H](NC(C)=O)[C@@H](C)O)C(C)C)[C@@H](C)O)C(C)C)C(N)=O [Compound 93], the IC50 [1, 3] is reported as 16 nM and the IC50 ([2]; counterscreen, Example 7) is reported as > 50 µM.

In the case of CC(=O)N[C@H](C(=O)N[C@H](C(=O)N[C@@H](Cc1ccccc1)C(=O)N[C@H](C(=O)N[C@@H](CO)C(=O)N[C@@H](Cc1c[nH]c2ccccc12)C(=O)N[C@@H](CCC(=O)O)C(=O)N[C@@H](CCC(=O)O)C(=O)N[C@@H](Cc1ccc(O)cc1)C(=O)N[C@@H](CC(C)C)C(=O)N[C@@H](CC(=O)O)C(=O)N[C@@H](Cc1c[nH]c2ccccc12)C(=O)N[C@H](C(=O)NCCCCCC(=O)N[C@@H](C)C(=O)N[C@@H](Cc1c[nH]c2ccccc12)C(=O)N[C@@H](CC(N)=O)C(=O)N[C@@H](CC(C)C)C(=O)N[C@@H](CCCCN)C(=O)N[C@@H](CCCNC(=N)N)C(N)=O)C(C)C)[C@@H](C)O)C(C)C)[C@@H](C)O [Compound 94], the IC50 [1, 3] is reported as 1410 nM and the IC50 ([2]; counterscreen, Example 7) is reported as > 50 µM.

CC[C@H](C)[C@@H]1NC(=O)[C@H](CCCNC(=N)N)NC(=O)[C@H](CCCCN)NC(=O)[C@H](CC(C)C)NC(=O)[C@H](CC(N)=O)NC(=O)[C@H](Cc2c[nH]c3ccccc23)NC(=O)[C@@H](NC(=O)CNC(=O)[C@H](CO)NC(=O)CNC(=O)OCC2c3ccccc3-c3ccccc32)CSSC[C@@H](C(N)=O)NC(=O)CNC(=O)[C@H](CCC(N)=O)NC(=O)[C@H](CO)NC(=O)CNC1=O [Compound 98] (Fmoc-GSGCWNLKRIGSQGC-NH2; disulfide 4-15) was tested, and the IC50 ([1]; PCSK9Δhelix/Ab20 IC50, TR-FRET, Example 7) was 3600 nM and the IC50 [2, 4] was > 50 µM.

“Ac-TVFTSWEEYLDWVGGSGKLWNLGRV-NH2 [Compound 8]” was tested, and the IC50 [1, 3] was 49 nM and the IC50 ([2]; counterscreen, Example 7) was > 50 µM.

With “Ac-TVFTSWEEYLDWVGSGKLWNL-NH2 [Compound 6]” the IC50 [1, 3] was 10000 nM and the IC50 ([2]; counterscreen, Example 7) was > 50 µM.

With “Ac-TVFTSWEEYLDWVGSGKLWNLG-NH2 [Compound 5]” the IC50 [1, 3] was 11100 nM and the IC50 ([2]; counterscreen, Example 7) was > 50 µM.

For “Ac-TVFTSWEEYLDWVGSGKLWNLGR-NH2 [Compound 4]”, the IC50 [1, 3] was 1520 nM and the IC50 ([2]; counterscreen, Example 7) was > 50 µM.
